Measured values published in patent publication US9902725B2, “Heterocyclic derivatives as RORgamma modulators” (GENFIT, priority 2014, dated 2018).

Molecular target: T1, RORγt ligand-binding domain (RORγt-LBD) (Homo sapiens, UniProt P51449)
T1 construct: 20 nM recombinantly expressed RORγ-LBD fused to GST
T1 sequence (P51449 269-508 limits assumed): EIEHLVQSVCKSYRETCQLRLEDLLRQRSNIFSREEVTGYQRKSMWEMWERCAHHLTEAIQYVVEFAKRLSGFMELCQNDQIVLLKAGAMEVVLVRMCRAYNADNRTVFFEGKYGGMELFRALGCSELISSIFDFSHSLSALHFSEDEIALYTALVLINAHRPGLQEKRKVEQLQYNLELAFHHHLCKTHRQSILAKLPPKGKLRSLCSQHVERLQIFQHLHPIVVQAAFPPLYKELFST
Assay: Time-resolved FRET (TR-FRET) RORγt coactivator assay
Assay type: biochemical
Settings: GST-RORγ-LBD, biotinylated RIP140 peptide, coactivator displacement
Source text: Time-resolved FRET (TR-FRET) RORγt coactivator assay was used to identify RORγ modulator compounds with ligand-dependent coactivator displacement. The assay uses a d2-labeled anti-GST antibody, synthetic N-terminally biotinylated peptide which is derived from nuclear receptor coactivator protein RIP140, and a RORγt ligand-binding domain (RORγt-LBD) that is tagged with glutathione-S-transferase (GST). The influence of compounds on the RORγ-peptide interaction relies on the binding dependent energy transfer from a donor to an acceptor fluorophore attached to the binding partner of interest. […] For reduction of background from compound fluorescence, TR-FRET method makes use of generic fluorophore labels and time resolved detection.
The assays were done in a final volume of 20 μl in a 384 well plate in a CHAPS buffer (2 mM CHAPS; 1 mM DTT, 2 mM EDTA; 0.1% BSA), containing 20 nM recombinantly expressed RORγ-LBD fused to GST, 30 nM N-terminally biotinylated peptide, 1 nM streptavidin-terbium conjugate and 20 nM d2 labeled-anti-GST. Test compounds were diluted using 10 mM stock solution. The range of the final compound concentrations used in this test was from 0.3 nM to 30 μM (logarithmic scale). DMSO content of the samples was kept at 1%. The assay was equilibrated for 2 hours in the dark at room temperature in 384 well plates (Falcon). The signal was detected by an Ultra384 reader (TECAN). The results were visualized by plotting the ratio between the emitted light at 665 nm and 620 nm. A basal level of RORγ-peptide formation is observed in the absence of added compound. Compounds that promote coactivator displacement induce a concentration-dependent decrease in time-resolved fluorescent signal. Data were collected and analyzed using GraphPad Prism software (GraphPad Software V5.02, San Diego Calif. USA). IC50 in μM and Emax in % were reported for each compound.

Row | Structure (SMILES) | IC50 [nM]
1 | CC(C)(C)OC(=O)CCc1c[nH]c2ccc(CC(=O)NC(c3ccccc3)c3ccccc3N3CC=CCC3)cc12 (stereo not drawn) [Cpd. 127, tert-butyl 3-{5-[({phenyl[2-(1,2,3,6-tetrahydropyridin-1-yl)phenyl]methyl}carbamoyl)methyl]-1H-indol-3-yl}propanoate] | 1000 to 10000
2 | CC(C)(C)OC(=O)CCc1c[nH]c2ccc(CC(=O)NC3(c4ccccc4N4CCCC4)CCCC3)cc12 [Cpd. 129, tert-butyl 3-{5-[({1-[2-(pyrrolidin-1-yl)phenyl]cyclopentyl}carbamoyl)methyl]-1H-indol-3-yl}propanoate] | 1000 to 10000
3 | Cc1ccc(C(NC(=O)Cc2ccc3[nH]cc(CCC(=O)OC(C)(C)C)c3c2)c2ncccn2)c(N2CCCCC2)c1 (stereo not drawn) [Cpd. 131, tert-butyl 3-{5-[({[4-methyl-2-(piperidin-1-yl)phenyl](pyrimidin-2-yl)methyl}carbamoyl)methyl]-1H-indol-3-yl}propanoate] | < 1000
4 | Cc1ccc(C(CC(C)C)NC(=O)Cc2ccc3[nH]cc(CCC(=O)OC(C)(C)C)c3c2)c(N(C)C)c1 (stereo not drawn) [Cpd. 133, tert-butyl 3-{5-[({1-[2-(dimethylamino)-4-methylphenyl]-3-methylbutyl}carbamoyl)methyl]-1H-indol-3-yl}propanoate] | 1000 to 10000
5 | COc1ccc(N2CCCCC2)c(C(NC(=O)Cc2ccc3[nH]cc(CCC(=O)OC(C)(C)C)c3c2)c2ccccc2)c1 (stereo not drawn) [Cpd. 135, tert-butyl 3-{5-[({[5-methoxy-2-(piperidin-1-yl)phenyl](phenyl)methyl}carbamoyl)methyl]-1H-indol-3-yl}propanoate] | 1000 to 10000
6 | Cc1ccc(C(NC(=O)Cc2ccc3[nH]cc(CCC(=O)OC(C)(C)C)c3c2)c2ccc(C)s2)c(N2CCCCC2)c1 (stereo not drawn) [Cpd. 137, tert-butyl 3-{5-[({[4-methyl-2-(piperidin-1-yl)phenyl](5-methylthiophen-2-yl)methyl}carbamoyl)methyl]-1H-indol-3-yl}propanoate] | 1000 to 10000
7 | Cc1ccc(C(NC(=O)Cc2ccc3[nH]cc(CCC(=O)OC(C)(C)C)c3c2)c2nccs2)c(N2CCCCC2)c1 (stereo not drawn) [Cpd. 139, tert-butyl 3-{5-[({[4-methyl-2-(piperidin-1-yl)phenyl](1,3-thiazol-2-yl)methyl}carbamoyl)methyl]-1H-indol-3-yl}propanoate] | < 1000
8 | CC(C)(C)OC(=O)CCc1c[nH]c2ccc(CC(=O)NC3(c4ccccc4N4CCCCC4)CCCCC3)cc12 [Cpd. 143, tert-butyl 3-{5-[({1-[2-(piperidin-1-yl)phenyl]cyclohexyl}carbamoyl)methyl]-1H-indol-3-yl}propanoate] | 1000 to 10000
9 | CCOc1ccc(C(NC(=O)Cc2ccc3[nH]cc(CCC(=O)OC(C)(C)C)c3c2)c2ccccc2)c(N2CCCCC2)c1 (stereo not drawn) [Cpd. 149, tert-butyl 3-{5-[({[4-ethoxy-2-(piperidin-1-yl)phenyl](phenyl)methyl}carbamoyl)methyl]-1H-indol-3-yl}propanoate] | 1000 to 10000
10 | Cc1cccc(C(NC(=O)Cc2ccc3[nH]cc(CCC(=O)OC(C)(C)C)c3c2)c2ccccc2N2CCCCC2)c1 (stereo not drawn) [Cpd. 157, tert-butyl 3-[5-({[(3-methylphenyl)[2-(piperidin-1-yl)phenyl]methyl]carbamoyl}methyl)-1H-indol-3-yl]propanoate] | < 1000

Results, then the compound that gave them:

Row | IC50 [nM] | Structure (SMILES)
11 | 1000 to 10000 | Cc1ccc(C(NC(=O)Cc2ccc3[nH]cc(CCC(=O)OC(C)(C)C)c3c2)c2ccccc2)c(N)c1 (stereo not drawn) [Cpd. 183, tert-butyl 3-[5-({[(2-amino-4-methylphenyl)(phenyl)methyl]carbamoyl}methyl)-1H-indol-3-yl]propanoate]
12 | < 1000 | Cc1ccc(C(C(=O)NCc2ccc3[nH]cc(CCC(=O)OC(C)(C)C)c3c2)c2ccccc2)c(N2CCCCC2)c1 (stereo not drawn) [Cpd. 208, tert-butyl 3-[5-({2-[4-methyl-2-(piperidin-1-yl)phenyl]-2-phenylacetamido}methyl)-1H-indol-3-yl]propanoate]
13 | 1000 to 10000 | CCOC(=O)CCCC(=O)c1c[nH]c2ccc(CC(=O)NC(c3ccccc3)c3ccccc3N3CCCCC3)cc12 (stereo not drawn) [Cpd. 214, ethyl 5-oxo-5-{5-[({phenyl[2-(piperidin-1-yl)phenyl]methyl}carbamoyl)methyl]-1H-indol-3-yl}pentanoate]
14 | 1000 to 10000 | CCCCC(NC(=O)Cc1ccc2[nH]cc(CCC(=O)OC(C)(C)C)c2c1)c1ccccc1N(CC)CC (stereo not drawn) [Cpd. 218, tert-butyl 3-{5-[({1-[2-(diethylamino)phenyl]pentyl}carbamoyl)methyl]-1H-indol-3-yl}propanoate]
15 | < 1000 | COC(=O)Cc1c[nH]c2ccc(CC(=O)NC(c3ccccc3)c3ccc(C)cc3Br)cc12 (stereo not drawn) [Cpd. 220, methyl 2-[5-({[(2-bromo-4-methylphenyl)(phenyl)methyl]carbamoyl}methyl)-1H-indol-3-yl]acetate]
16 | 1000 to 10000 | COC(=O)Cc1c[nH]c2ccc(CC(=O)NC(c3ccc(C)s3)c3ccc(C)cc3C)cc12 (stereo not drawn) [Cpd. 222, methyl 2-[5-({[(2,4-dimethylphenyl)(5-methylthiophen-2-yl)methyl]carbamoyl}methyl)-1H-indol-3-yl]acetate]
17 | < 1000 | COC(=O)Cc1c[nH]c2ccc(CC(=O)NC(c3ccccc3)c3ccccc3N3CCOCC3)cc12 (stereo not drawn) [Cpd. 224, methyl 2-{5-[({[2-(morpholin-4-yl)phenyl](phenyl)methyl}carbamoyl)methyl]-1H-indol-3-yl}acetate]
18 | < 1000 | Cc1ccc(C(NC(=O)Cc2ccc3[nH]cc(CCC(=O)OC(C)(C)C)c3c2)c2ncccn2)c(Br)c1 (stereo not drawn) [Cpd. 226, tert-butyl 3-[5-({[(2-bromo-4-methylphenyl)(pyrimidin-2-yl)methyl]carbamoyl}methyl)-1H-indol-3-yl]propanoate]
19 | 1000 to 10000 | Cc1ccc(C(NC(=O)Cc2ccc3[nH]cc(CCC(=O)OC(C)(C)C)c3c2)c2ccccc2)c2[nH]ccc12 (stereo not drawn) [Cpd. 228, tert-butyl 3-[5-({[(4-methyl-1H-indol-7-yl)(phenyl)methyl]carbamoyl}methyl)-1H-indol-3-yl]propanoate]
20 | 1000 to 10000 | CCCCC(NC(=O)Cc1ccc2[nH]cc(CCC(=O)OC(C)(C)C)c2c1)c1ccc(C)cc1N1CCCCC1 (stereo not drawn) [Cpd. 230, tert-butyl 3-{5-[({1-[4-methyl-2-(piperidin-1-yl)phenyl]pentyl}carbamoyl)methyl]-1H-indol-3-yl}propanoate]
21 | < 1000 | CC(C)(C)OC(=O)CCc1c[nH]c2ccc(CC(=O)NC(c3ccccc3)c3ccccc3N3CCCC(F)(F)C3)cc12 (stereo not drawn) [Cpd. 232, tert-butyl 3-{5-[({[2-(3,3-difluoropiperidin-1-yl)phenyl](phenyl)methyl}carbamoyl)methyl]-1H-indol-3-yl}propanoate]
22 | 1000 to 10000 | CC(C)(C)OC(=O)NC(=N)NC(=O)CCc1c[nH]c2ccc(CC(=O)NC(c3ccccc3)c3ccccc3N3CCCCC3)cc12 (stereo not drawn) [Cpd. 234, tert-butyl N-[(3-{5-[({phenyl[2-(piperidin-1-yl)phenyl]methyl}carbamoyl)methyl]-1H-indol-3-yl}propanamido)methanimidoyl]carbamate]
23 | < 1000 | CCOC(=O)CCc1n[nH]c2ccc(CC(=O)NC(c3ccccc3)c3ccccc3N3CCCCC3)cc12 (stereo not drawn) [Cpd. 236, ethyl 3-{5-[({phenyl[2-(piperidin-1-yl)phenyl]methyl}carbamoyl)methyl]-1H-indazol-3-yl}propanoate]
24 | 1000 to 10000 | COC(=O)Cc1c[nH]c2ccc(CC(=O)NC(c3ccccc3)c3cccc(N4CCCCC4)c3)cc12 (stereo not drawn) [Cpd. 238, methyl 2-{5-[({phenyl[3-(piperidin-1-yl)phenyl]methyl}carbamoyl)methyl]-1H-indol-3-yl}acetate]
